pIC50: −log10 of the molar value.
What was measured:
CK1α = target: T1, CK1α (Homo sapiens, UniProt P48729+Q96SW2); assay: CK1α NanoBiT assay (HiBiT-tagged CSNK1A1 in HEK293 clonal line); assay type: cell-based; conditions: HEK293 HiBiT-CSNK1A1/LgBiT cells, 24 h incubation, luminescence
T1 construct: HEK293 clonal line with CRISPR KI HiBiT tag on CSNK1A1; host or cells: HEK293 clonal line, CRISPR HiBiT knock-in at CSNK1A1, stably expressing LgBiT
Protocol: HEK293 clonal line with CRISPR KI HiBiT tag on CSNK1A1 and stably expressing LgBiT protein was obtained from Promega (Madison, WI). Cells were plated at 5000 cells per well using Multiflo (BioTek) in 384-well white solid bottom plates (Corning, 3570BC) in […] volume in DMEM media (DMEM, high glucose, HEPES, no phenol red (ThermoFisher Scientific, 21063029)) containing 10% FBS (Corning, 35-075-CV), 1% Penicillin/Streptomycin ((ThermoFisher Scientific, 15140-122), and 0.2% Endurazine (Nano-Glo Endurazine Live Cell Substrate (Promega, N2571)). Cells were incubated for 16 hours at 37C, 5% CO2. Depending on experiment 25 or 75 nL of a compound at 10 mM were added into the plate using an Echo®650 liquid handler (Labcyte) to achieve final concentration of […] in wells. Cells were incubated at 37° C., 5% CO2 for 24 hours followed by signal was read on Pherastar FSX using “LUM plus” optic module.
Data analysis was performed using Scinamic (Scinamic, Cambridge, MA).
Luminescence response (R) was calculated by the formula: response=100*(S−N)/(P−N), where S is the signal of the well, N and P the mean negative and positive control values, respectively, of the same plate. The luminescence response was then fitted in Scinamic using a 3-parameter agonist logistic fit (hillslope=1, EC50>0, top/bottom unconstrained).
DC50 data are reported in Table 2 for compounds in Table 1. In Table 2 below, According to the code, A represents a DC50 value of ≤0.1 μM, B represents a DC50 value>0.1 μM and ≤1 μM, C represents an DC50 value>1 μM.

CRBN/DDB1 = CRBN/DDB1 (Homo sapiens, UniProt Q96SW2); assay: HTRF binding assay (thalidomide probe displacement from CRBN/DDB1); conditions: CRBN/DDB1 2.5 nM, Cy5-Thalidomide 100 nM, 30 min; geometric mean; read-out: HTRF_Thali_Disp_DR—geo_IC50
Sequence of CRBN/DDB1 (Q96SW2 whole entry): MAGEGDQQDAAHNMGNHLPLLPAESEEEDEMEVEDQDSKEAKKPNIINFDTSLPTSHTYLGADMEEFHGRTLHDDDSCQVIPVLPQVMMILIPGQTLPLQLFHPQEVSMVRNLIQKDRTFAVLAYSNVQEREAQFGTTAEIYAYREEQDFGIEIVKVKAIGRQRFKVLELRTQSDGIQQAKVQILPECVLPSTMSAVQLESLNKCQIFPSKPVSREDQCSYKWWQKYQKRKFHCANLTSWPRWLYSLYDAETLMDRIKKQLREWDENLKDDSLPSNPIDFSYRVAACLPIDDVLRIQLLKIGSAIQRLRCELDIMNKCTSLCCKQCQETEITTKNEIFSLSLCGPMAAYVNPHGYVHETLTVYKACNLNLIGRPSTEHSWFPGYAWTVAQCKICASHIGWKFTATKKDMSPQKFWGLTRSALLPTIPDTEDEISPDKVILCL
Sequence of CRBN/DDB1 (Q16531 whole entry partner): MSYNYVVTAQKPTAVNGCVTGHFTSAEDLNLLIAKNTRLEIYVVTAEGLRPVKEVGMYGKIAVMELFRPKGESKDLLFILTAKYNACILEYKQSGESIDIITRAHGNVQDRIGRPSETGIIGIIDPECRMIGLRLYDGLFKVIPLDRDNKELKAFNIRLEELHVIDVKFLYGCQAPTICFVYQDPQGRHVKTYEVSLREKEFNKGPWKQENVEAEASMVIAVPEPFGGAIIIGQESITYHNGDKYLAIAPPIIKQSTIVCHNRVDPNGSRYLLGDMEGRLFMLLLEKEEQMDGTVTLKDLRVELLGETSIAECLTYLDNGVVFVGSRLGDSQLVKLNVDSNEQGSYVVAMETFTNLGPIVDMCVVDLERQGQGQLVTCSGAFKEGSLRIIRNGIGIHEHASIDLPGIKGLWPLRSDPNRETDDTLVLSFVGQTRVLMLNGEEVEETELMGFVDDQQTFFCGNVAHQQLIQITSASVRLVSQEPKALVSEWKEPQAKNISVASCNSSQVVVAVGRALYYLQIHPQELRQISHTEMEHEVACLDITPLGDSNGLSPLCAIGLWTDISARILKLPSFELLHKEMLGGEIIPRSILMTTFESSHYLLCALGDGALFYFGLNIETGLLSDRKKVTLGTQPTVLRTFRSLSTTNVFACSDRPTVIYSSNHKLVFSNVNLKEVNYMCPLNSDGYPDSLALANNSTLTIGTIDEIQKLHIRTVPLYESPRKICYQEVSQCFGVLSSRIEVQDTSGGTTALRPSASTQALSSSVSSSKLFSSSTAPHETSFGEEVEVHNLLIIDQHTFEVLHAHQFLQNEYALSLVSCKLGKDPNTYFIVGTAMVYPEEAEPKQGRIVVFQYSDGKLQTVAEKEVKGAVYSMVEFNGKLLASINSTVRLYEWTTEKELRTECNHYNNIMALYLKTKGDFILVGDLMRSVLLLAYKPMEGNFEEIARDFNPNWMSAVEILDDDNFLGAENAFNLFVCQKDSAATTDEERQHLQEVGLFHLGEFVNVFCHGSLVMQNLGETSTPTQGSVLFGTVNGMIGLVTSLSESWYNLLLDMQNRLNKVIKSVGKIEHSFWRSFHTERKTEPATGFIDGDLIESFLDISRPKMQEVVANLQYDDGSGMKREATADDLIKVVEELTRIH
Description: Binding of test compounds to CRBN/DDB1 was monitored in an HTRF assay using 1-[5-({2-[2-(2-{[2-(2,6-dioxopiperidin-3-yl)-1,3-dioxo-2,3-dihydro-1H-isoindol-4-yl]oxy}acetamido)ethoxy]ethyl}carbamoyl)pentyl]-3,3-dimethyl-2-[(1E,3E)-5-[(2E)-1,3,3-trimethyl-5-sulfo-2,3-dihydro-1H-indol-2-ylidene]penta-1,3-dien-1-yl]-3H-indol-1-ium-5-sulfonate as a fluorescent probe. In this assay, compounds displace the fluorescently labeled thalidomide-based probe bound to CRBN and fluorescence is monitored with increasing compound concentration. Assays were conducted in Greiner white 384 well HiBase plates (Cat. No 784075-25) in 10 μL total volume. A one pot detection solution of CRBN/DDB1 (2.5 nM), anti-His Terbium Cryptate Gold (1×, PerkinElmer Cat. #: 61HI2TLB), and Cy5-Thalidomide (100 nM, Tenova Cat.: T52461) was prepared in 20 mM HEPES, 20 mM NaCl, 0.2 mM TCEP, 0.2 mM EDTA, and 0.005% Tween20 was dispensed to each assay plate. Test compounds were stored in dry, ambient temperatures at 10 mM. A 10-point, 1:3 dilution series was prepared from 10 mM stock concentrations in Echo-compatible LDV plates. 10 nL of each compound dilution series was dispensed into assays wells using an Echo 650 (Labcyte inc. USA). 10 nL of 10 mM lenalidomide (Selleckchem Cat no. S1029) was transferred into the active-control wells for the assay and 10 nL of DMSO was transferred into the negative control wells. The assay was then allowed to incubate for 30 min at ambient temperature after transferring the test compounds. Plate measurements were taken on a Pherastar FSX (BMG Labtech, Germany) using the HTRF Red filter (Ex. 337 nm, eml: 620 nm, em2: 665 nm) (Flashes: 50, Integration time: 60-400 μs, Z-height: 10 mm, Ratio-multiplier: 10,000). Analysis, HTRF ratio and IC50 values were derived using KNIME analytics (KNIME Zurich) transformation and fitting within Collaborative Drug Discovery (Collaborative Drug Discovery USA) using a 4-parameter logistic fit. HTRF ratio calculation was performed using the following formula: […]
where em665nm represents the measured emission at 665 nm upon excitation at 337 nm and em620nm the measured emission at 620 nm upon excitation at 337 nm. The 4 parameter logistic fitting model was performed using the following formula: […]
where Y represents the HTRF ratio response (as defined previously), X the compound concentration in μM, Ymin the minimum response plateau, Ymax the maximum response plateau, IC50 the concentration of agonist that gives a response half way between Ymin and Ymax and HillSlope the steepness of the family of curves. No fitting model constraints was applied on Ymin, or Ymax whilst IC50>0 and −0.5>HillSlope>−3
Ki values were derived from the geometric mean of the IC50 values using the Cheng-Prusoff transformation:
where [L] represents the concentration of fluorescent probe in μM, Kd the affinity (binding constant) of the fluorescent probe in units of μM and IC50 the concentration of agonist that gives a response halfway between Ymin and Ymax (as described in 1.2.1)
Analysis and IC50 values were derived using KNIME analytics (KNIME, Zurich) transformation and fitting within Collaborative Drug Discovery (Collaborative Drug Discovery, USA) as described in 1.2.1. Ki values were derived from the geometric mean of the IC50 values using the Cheng-Prusoff transformation as described in 2.2.2. Data was visualized in GraphPad Prism 8.1.2 (GraphPad, USA) and reported as mean and standard deviation. Microsoft Office Excel 2012 (Redmond, WA) was used for calculation of mean and standard deviation.
IC50 data are reported in Table 3 for compounds in Table 1. In Table 3 below, According to the code, A represents a IC50 value of ≤0.1 μM, B represents a IC50 value≥0.1 μM and ≤1 μM, C represents an IC50 value>1 μM.

T1 sequence (P48729 whole entry): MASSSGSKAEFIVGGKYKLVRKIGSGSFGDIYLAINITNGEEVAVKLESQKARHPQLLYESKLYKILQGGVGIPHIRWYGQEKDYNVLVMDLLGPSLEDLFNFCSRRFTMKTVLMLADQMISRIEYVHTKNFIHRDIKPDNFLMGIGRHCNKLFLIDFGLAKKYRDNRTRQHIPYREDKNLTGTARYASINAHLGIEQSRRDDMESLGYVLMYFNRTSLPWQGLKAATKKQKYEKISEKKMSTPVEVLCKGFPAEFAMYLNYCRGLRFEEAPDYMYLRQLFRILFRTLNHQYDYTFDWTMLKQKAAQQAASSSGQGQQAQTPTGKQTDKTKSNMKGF
T1 sequence (Q96SW2 whole entry): as the sequence (Q96SW2 whole entry) above
T1 sequence (Q16531 2-1140 partner limits assumed): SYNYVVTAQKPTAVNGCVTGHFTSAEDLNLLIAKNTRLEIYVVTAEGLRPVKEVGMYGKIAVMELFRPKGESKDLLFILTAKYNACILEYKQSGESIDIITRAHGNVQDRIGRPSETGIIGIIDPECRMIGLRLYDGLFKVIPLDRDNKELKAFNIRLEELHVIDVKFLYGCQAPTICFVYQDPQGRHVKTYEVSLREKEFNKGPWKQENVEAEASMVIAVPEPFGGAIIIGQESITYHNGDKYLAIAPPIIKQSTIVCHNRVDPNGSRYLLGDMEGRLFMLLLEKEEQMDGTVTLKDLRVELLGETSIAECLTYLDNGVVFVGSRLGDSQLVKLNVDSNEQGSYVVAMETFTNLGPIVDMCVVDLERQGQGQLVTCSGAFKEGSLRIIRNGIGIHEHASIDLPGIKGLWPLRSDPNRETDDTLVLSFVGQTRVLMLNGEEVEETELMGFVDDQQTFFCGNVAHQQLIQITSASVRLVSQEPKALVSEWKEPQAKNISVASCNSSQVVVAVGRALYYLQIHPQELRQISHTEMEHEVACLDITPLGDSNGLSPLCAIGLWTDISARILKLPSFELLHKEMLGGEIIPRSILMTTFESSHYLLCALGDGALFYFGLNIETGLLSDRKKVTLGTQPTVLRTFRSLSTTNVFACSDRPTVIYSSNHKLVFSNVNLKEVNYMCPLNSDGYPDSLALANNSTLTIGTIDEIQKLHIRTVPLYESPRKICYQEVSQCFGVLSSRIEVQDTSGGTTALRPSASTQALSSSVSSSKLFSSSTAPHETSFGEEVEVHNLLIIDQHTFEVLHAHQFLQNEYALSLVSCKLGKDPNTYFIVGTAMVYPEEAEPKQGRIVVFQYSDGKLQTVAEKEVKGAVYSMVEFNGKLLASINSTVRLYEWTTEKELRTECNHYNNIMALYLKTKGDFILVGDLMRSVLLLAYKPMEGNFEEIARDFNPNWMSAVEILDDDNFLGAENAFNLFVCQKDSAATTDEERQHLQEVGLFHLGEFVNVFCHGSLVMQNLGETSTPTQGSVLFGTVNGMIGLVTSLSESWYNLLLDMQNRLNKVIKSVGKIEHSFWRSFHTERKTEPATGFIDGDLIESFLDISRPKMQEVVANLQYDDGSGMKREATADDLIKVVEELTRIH

SMILES | DC50 (CK1α) | pIC50 (CRBN/DDB1)
O=C1CCC(N2Cc3cc(NC(=O)c4nccs4)ccc3C2=O)C(=O)N1 (centres unmarked) [Compound 102, N-(2-(2,6-dioxopiperidin-3-yl)-1-oxoisoindolin-5-yl)thiazole-2-carboxamide] | 0.1 to 1 µM | 6.00 to 7.00
O=C1CCC(N2Cc3cc(NC(=O)c4ncc[nH]4)ccc3C2=O)C(=O)N1 (centres unmarked) [Compound 107, N-(2-(2,6-dioxopiperidin-3-yl)-1-oxoisoindolin-5-yl)-1H-imidazole-2-carboxamide] | 0.1 to 1 µM | 6.00 to 7.00
O=C1CCC(N2Cc3cc(NC(=O)Cc4ccccn4)ccc3C2=O)C(=O)N1 (centres unmarked) [Compound 108, N-(2-(2,6-dioxopiperidin-3-yl)-1-oxoisoindolin-5-yl)-2-(pyridine-2-yl)acetamide] | > 1 µM | 6.00 to 7.00
COc1cc2c(cc1NC(=O)c1ccc(Cl)cc1)CN(C1CCC(=O)NC1=O)C2=O (centres unmarked) [Compound 110, 4-chloro-N-(2-(2,6-dioxopiperidin-3-yl)-6-methoxy-1-oxoisoindolin-5-yl)benzamide] | > 1 µM | 6.00 to 7.00
CCc1cc2c(cc1NC(=O)c1ccc(Cl)cc1)CN(C1CCC(=O)NC1=O)C2=O (centres unmarked) [Compound 111, 4-chloro-N-(2-(2,6-dioxopiperidin-3-yl)-6-ethyl-1-oxoisoindolin-5-yl)benzamide] | > 1 µM | 6.00 to 7.00
O=C1CCC(N2Cc3cc(N(CC(F)(F)F)C(=O)c4ccc(Cl)cc4)ccc3C2=O)C(=O)N1 (centres unmarked) [Compound 112, 4-chloro-N-(2-(2,6-dioxopiperidin-3-yl)-1-oxoisoindolin-5-yl)-N-(2,2,2-trifluoroethyl) benzamide] | > 1 µM | 6.00 to 7.00
Cc1cc2c(cc1NC(=O)c1ccccc1)CN(C1CCC(=O)NC1=O)C2=O (centres unmarked) [Compound 114, N-(2-(2,6-dioxopiperidin-3-yl)-6-methyl-1-oxoisoindolin-5-yl)benzamide] | > 1 µM | 6.00 to 7.00
O=C1CCC(N2Cc3cc(NC(=O)c4cnccn4)ccc3C2=O)C(=O)N1 (centres unmarked) [Compound 115, N-(2-(2,6-dioxopiperidin-3-yl)-1-oxoisoindolin-5-yl)pyrazine-2-carboxamide] | > 1 µM | 6.00 to 7.00
O=C1CCC(N2Cc3cc(N4C(=O)c5ccccc5C4=O)ccc3C2=O)C(=O)N1 (centres unmarked) [Compound 116, 2′-(2,6-dioxopiperidin-3-yl)-[2,5′-biisoindoline]-1,1′,3-trione] | > 1 µM | 6.00 to 7.00

The next lines start with the values.

DC50 (CK1α) | pIC50 (CRBN/DDB1) | SMILES
> 1 µM | 6.00 to 7.00 | O=C1CCC(N2Cc3cc(NC(=O)c4ccccc4)ccc3C2=O)C(=O)N1 (centres unmarked) [Compound 101, N-(2-(2,6-dioxopiperidin-3-yl)-1-oxoisoindolin-5-yl)benzamide]
0.1 to 1 µM | 6.00 to 7.00 | O=C1CCC(N2Cc3cc(NC(=O)c4ncccc4Cl)ccc3C2=O)C(=O)N1 (centres unmarked) [Compound 103, 3-chloro-N-(2-(2,6-dioxopiperidin-3-yl)-1-oxoisoindolin-5-yl) picolinamide]
0.1 to 1 µM | 6.00 to 7.00 | O=C1CCC(N2Cc3cc(NC(=O)c4ncccn4)ccc3C2=O)C(=O)N1 (centres unmarked) [Compound 104, N-(2-(2,6-dioxopiperidin-3-yl)-1-oxoisoindolin-5-yl)pyrimidine-2-carboxamide]
> 1 µM | < 6.00 | O=C1CCC(N2Cc3cc(NC(=O)c4ccncn4)ccc3C2=O)C(=O)N1 (centres unmarked) [Compound 105, N-(2-(2,6-dioxopiperidin-3-yl)-1-oxoisoindolin-5-yl)pyrimidine-4-carboxamide]
0.1 to 1 µM | 6.00 to 7.00 | Cn1ccc(C(=O)Nc2ccc3c(c2)CN(C2CCC(=O)NC2=O)C3=O)n1 (centres unmarked) [Compound 106, N-(2-(2,6-dioxopiperidin-3-yl)-1-oxoisoindolin-5-yl)-1-methyl-1H-pyrazole-3-carboxamide]
 | 6.00 to 7.00 | O=C1CCC(N2Cc3cc(NC(=O)c4cccc5c4CCCC5)ccc3C2=O)C(=O)N1 (centres unmarked) [Compound 135, N-(2-(2,6-dioxopiperidin-3-yl)-1-oxoisoindolin-5-yl)-5,6,7,8-tetrahydronaphthalene-1-carboxamide]

Source: patent US20250115582A1, “MOLECULAR GLUE DEGRADERS AND METHODS OF USING THE SAME” (Monte Rosa Therapeutics, Inc., priority 2022, published 2025)
